Values quoted from earlier work, collected in patent US20140256762A1, “ARTEMISININ-BASED COMBINATION THERAPY FOR TREATING VIRAL MEDIATED DISEASE” (priority 2012, published 2014).

Legend:
[1] = background statement
[2] = background statement; remark: listed apart in the source

## COc1ccc2cc3[n+](cc2c1OC)CCc1cc2c(cc1-3)OCO2 [Berberine, (5,6-Dihydro-9,10-dimethoxybenzo[g]-1,3-benzodioxolo[5,6-a]quinolizinium)]
[1]
  Genotoxic activity: no genotoxic activity
[1]; generally considered
  Toxicity: non-toxic

## CO[C@H]1O[C@@H]2O[C@@]3(C)CC[C@H]4[C@H](C)CC[C@@H]([C@H]1C)[C@@]24OO3 [artemether, (+)-(3-alpha,5a-beta,6-beta,8a-beta, 9-alpha,12-beta,12aR)-decahydro-10-methoxy-3,6,9-trimethyl-3,12-epoxy-12H-pyrano(4,3-j)-1,2-benzodioxepin]
[2]
  Solubility: lipid-soluble

## C[C@@H]1CC[C@H]2[C@@H](C)C(=O)O[C@@H]3O[C@@]4(C)CC[C@@H]1[C@]32OO4 [artemisinin]
[2]
  Solubility: sparingly soluble in either water or oils

## C[C@H]1[C@H](OC(=O)CCC(=O)O)O[C@@H]2O[C@@]3(C)CC[C@H]4[C@H](C)CC[C@@H]1[C@@]24OO3 [artesunate, 3R,5aS,6R,8aS,9R,10S,12R,12aR)-Decahydro-3,6,9-trimethyl-3,12-epoxy-12H-pyrano(4,3-j)-1,2-benzodioxepin-10-ol hydrogen succinate]
[2]
  Solubility: water-soluble
